Experimental data: ChEMBL document CHEMBL1201862, “PubChem BioAssay data set” (2004)
Counter-ions that a name gives are not always drawn. Active and inactive are the calls of the source.

Assays:
[1] = biological target: Voltage-dependent T-type calcium channel subunit alpha-1H (Homo sapiens, UniProt O95180); format: functional;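 also: channel activity triggered by adding a high calcium stimulation buffer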
[2] = biological target: T1, Heat shock factor protein 1 (Mus musculus, UniProt P38532); test: decrease of HSF1-responsive luciferase luminescence – cell-based, NIH3T3, dose retest, confirmation (AID 2382); format: functional;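 also: NIH3T3 fibroblasts with HSF1-driven luciferase reporter stressed by proteasome inhibitor MG132; luminescence from HSF1-driven luciferase expression after 8 hours of MG132 stress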
T1 sequence (P38532 whole entry): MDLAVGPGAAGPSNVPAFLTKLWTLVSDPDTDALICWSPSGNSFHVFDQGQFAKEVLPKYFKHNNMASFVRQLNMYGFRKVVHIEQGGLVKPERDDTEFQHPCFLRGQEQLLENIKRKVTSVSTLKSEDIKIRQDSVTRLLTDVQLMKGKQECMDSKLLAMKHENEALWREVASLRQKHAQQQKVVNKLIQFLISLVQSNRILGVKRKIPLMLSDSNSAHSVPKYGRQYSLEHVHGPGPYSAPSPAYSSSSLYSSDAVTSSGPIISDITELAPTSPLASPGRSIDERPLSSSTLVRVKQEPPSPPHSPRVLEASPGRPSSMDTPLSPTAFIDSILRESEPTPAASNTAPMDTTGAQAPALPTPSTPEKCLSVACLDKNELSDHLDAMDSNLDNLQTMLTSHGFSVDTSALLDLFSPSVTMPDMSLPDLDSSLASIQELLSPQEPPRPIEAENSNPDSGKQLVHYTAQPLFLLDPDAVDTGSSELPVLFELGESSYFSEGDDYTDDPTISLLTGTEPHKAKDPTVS

[3] = biological target: Eukaryotic translation initiation factor 4E (Mus musculus, UniProt P63073); test: blockers of eIF4G binding by eIF4E – biochemical, TR-FRET, dose response (AID 855); format: functional;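 also: potency for disrupting eIF4E binding to eIF4GI seen as loss of FRET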
Eukaryotic translation initiation factor 4E, sequence (P63073 whole entry): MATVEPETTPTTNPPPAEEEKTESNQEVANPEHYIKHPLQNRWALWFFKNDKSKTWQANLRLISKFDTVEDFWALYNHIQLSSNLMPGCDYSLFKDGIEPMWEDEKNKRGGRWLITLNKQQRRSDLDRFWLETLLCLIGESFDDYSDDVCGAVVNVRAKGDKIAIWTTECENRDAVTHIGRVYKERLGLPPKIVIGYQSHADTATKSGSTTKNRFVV

[4] = HEK-293T cell viability reduction – luminescence, B-cell screen hits, cytotoxicity control for BCR NF-kB inhibitor project, dose response (AID 489021); format: functional, cell-based;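 also: HEK-293T cells carrying an NF-kB luciferase reporter; cells exposed to compound for about 14 hours before viability readout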
[5] = THP-1 cell cytotoxicity, dose response, cytotoxicity control for non-replicating M. tuberculosis project (AID 489025); format: functional
cells [6] = format: functional
Vero [7] = test: cells; format: functional; details: Chlorocebus sabaeus
[8] = biological target: Luciferin 4-monooxygenase (Photinus pyralis, UniProt P08659); test: Counter Screen for Luciferase-based Assay Positives. [Related pubchem assays: 620, 618, 411 ]
Luciferin 4-monooxygenase, sequence (P08659 whole entry): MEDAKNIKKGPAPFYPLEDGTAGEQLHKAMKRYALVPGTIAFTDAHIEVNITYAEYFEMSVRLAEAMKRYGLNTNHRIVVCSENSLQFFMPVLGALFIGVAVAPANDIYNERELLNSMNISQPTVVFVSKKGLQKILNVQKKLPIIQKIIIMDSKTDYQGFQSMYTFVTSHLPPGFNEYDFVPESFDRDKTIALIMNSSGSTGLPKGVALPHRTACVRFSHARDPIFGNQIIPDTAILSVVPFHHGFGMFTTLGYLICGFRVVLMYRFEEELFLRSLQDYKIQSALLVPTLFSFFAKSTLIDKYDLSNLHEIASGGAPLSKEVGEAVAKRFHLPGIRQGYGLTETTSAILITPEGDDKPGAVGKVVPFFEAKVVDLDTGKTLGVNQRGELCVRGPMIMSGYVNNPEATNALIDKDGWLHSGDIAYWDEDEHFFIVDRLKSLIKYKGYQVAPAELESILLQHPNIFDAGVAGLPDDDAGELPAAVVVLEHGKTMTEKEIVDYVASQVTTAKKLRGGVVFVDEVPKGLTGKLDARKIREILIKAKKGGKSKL

HT-1080 = test: HT1080 cell viability loss – fluorescence readout (AID 620); format: functional, cell-based; details: Homo sapiens
[9] = viability of uninfected HEp-2 cells – cell-based, HTS, cytotoxicity control for RSV inhibitor project, dose response (AID 2410); format: functional; details: human respiratory syncytial virus
[10] = biological target: T2, Replicative DNA helicase DnaB (Mycobacterium tuberculosis, UniProt P9WMR3); test: DnaB intein splicing inhibitors, dose response, biochemical, cell-free fluorescence (AID 449749); format: functional
T2 sequence (P9WMR3 whole entry): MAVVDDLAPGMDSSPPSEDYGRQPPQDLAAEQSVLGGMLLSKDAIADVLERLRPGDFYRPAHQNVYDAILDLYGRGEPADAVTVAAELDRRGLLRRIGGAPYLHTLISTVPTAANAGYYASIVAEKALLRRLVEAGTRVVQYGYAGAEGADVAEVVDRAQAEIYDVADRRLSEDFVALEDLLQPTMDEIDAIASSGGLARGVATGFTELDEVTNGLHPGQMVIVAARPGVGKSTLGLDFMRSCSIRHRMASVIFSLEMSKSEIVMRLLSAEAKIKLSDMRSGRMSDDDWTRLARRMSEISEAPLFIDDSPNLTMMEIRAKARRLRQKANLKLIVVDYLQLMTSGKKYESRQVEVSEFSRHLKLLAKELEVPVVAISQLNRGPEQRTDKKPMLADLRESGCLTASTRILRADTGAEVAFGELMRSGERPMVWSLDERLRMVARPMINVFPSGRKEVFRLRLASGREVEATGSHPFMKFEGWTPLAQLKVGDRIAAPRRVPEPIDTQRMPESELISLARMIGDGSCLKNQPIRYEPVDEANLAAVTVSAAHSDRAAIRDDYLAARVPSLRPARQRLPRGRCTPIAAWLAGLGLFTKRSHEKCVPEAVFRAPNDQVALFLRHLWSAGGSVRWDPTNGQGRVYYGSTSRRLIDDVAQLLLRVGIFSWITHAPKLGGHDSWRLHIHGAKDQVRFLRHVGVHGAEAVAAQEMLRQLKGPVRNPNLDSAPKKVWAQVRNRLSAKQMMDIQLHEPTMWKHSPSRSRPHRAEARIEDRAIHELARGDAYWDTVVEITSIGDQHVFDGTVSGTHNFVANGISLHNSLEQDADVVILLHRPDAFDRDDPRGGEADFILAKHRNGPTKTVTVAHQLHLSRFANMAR

Vero [11] = test: cells; format: functional, cell-based; details: Chlorocebus sabaeus
Protein RecA = biological target: T3, Protein RecA (Mycobacterium tuberculosis, UniProt P9WHJ3); test: Fluorescence Cell-Free Homogeneous Dose Retest to Identify Inhibitors of RecA-Intein Splicing Activity. [Related pubchem assays (depositor defined):AID2097, AID2223, AID489010, AID492950]; format: functional
T3 sequence (P9WHJ3 whole entry): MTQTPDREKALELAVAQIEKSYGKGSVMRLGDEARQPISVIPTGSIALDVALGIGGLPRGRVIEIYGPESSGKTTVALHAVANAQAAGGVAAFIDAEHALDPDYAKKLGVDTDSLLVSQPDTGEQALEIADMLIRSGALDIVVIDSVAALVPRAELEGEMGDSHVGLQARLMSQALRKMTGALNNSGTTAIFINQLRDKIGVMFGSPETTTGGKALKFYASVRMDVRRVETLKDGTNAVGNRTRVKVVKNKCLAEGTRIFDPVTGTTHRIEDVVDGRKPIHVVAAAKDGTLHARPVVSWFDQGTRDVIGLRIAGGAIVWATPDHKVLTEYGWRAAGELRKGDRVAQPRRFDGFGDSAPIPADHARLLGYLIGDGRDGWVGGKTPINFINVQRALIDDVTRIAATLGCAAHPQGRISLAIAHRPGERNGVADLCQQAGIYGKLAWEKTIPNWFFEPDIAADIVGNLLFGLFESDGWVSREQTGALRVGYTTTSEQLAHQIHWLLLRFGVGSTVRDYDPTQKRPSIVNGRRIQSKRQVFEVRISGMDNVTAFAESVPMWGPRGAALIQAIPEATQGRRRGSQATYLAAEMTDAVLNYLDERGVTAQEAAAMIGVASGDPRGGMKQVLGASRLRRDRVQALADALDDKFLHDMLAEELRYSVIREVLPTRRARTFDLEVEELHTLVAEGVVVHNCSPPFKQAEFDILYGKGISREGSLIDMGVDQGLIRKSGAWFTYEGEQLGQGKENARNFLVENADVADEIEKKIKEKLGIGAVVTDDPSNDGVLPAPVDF

cells [12] = test: cells
[13] = biological target: T4, Microphthalmia-associated transcription factor (Homo sapiens, UniProt O75030); test: reducers of TRPM1 reporter luminescence, concentration series – cell-based, SK-MEL-5, cherry-picked, set 3, MITF inhibitor project, dose response (AID 493073); format: functional;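 also: SK-MEL-5 melanoma cells with luciferase driven by the MITF target TRPM1 promoter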
T4 sequence (O75030 whole entry): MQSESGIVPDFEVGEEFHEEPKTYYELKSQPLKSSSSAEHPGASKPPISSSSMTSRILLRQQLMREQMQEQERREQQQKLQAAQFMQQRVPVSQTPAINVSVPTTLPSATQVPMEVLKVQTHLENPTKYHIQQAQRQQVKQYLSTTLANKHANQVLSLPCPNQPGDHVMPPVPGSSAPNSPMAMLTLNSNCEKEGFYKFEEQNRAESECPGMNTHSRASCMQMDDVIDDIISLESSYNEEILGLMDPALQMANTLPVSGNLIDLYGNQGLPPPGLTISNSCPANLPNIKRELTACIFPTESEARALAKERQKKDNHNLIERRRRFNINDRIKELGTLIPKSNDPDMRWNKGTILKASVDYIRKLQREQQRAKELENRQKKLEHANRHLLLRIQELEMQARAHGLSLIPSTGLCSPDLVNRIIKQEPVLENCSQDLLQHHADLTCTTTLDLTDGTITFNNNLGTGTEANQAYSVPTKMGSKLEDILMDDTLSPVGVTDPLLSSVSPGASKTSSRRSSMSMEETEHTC

[14] = biological target: T5, Epstein-Barr nuclear antigen 1 (Epstein-Barr virus (strain B95-8) (HHV-4) (Human herpesvirus 4), UniProt P03211); test: inhibition of EBV nuclear antigen 1 DNA binding – biochemical, fluorescence polarization, 1536-well, dose response (AID 2381); set-up: species or system human gammaherpesvirus 4;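 also: fluorescence polarization of a Cy5 DNA probe bound by EBNA-1 protein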
T5 sequence (P03211 whole entry): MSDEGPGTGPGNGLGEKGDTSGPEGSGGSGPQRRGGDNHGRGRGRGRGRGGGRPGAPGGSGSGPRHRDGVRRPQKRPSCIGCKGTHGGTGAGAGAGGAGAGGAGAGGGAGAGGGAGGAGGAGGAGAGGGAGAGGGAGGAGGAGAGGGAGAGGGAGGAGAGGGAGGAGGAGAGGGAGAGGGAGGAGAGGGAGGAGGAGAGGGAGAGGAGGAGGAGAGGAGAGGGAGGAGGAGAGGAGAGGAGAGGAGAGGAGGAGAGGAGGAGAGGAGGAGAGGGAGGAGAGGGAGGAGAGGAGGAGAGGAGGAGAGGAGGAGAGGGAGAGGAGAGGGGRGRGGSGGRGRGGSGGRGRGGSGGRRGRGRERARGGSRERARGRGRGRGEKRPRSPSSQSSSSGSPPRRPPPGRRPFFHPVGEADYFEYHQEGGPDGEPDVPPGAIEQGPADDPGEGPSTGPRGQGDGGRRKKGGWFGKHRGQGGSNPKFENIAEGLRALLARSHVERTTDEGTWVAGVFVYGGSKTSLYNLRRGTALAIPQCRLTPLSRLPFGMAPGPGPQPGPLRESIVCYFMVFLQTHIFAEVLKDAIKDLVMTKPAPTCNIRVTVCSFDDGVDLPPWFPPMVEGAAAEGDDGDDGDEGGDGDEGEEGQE

[15] = biological target: T6, Lytic switch protein BZLF1 (Epstein-Barr virus (strain B95-8) (HHV-4) (Human herpesvirus 4), UniProt P03206); test: inhibition of BZLF1 ZTA DNA binding – biochemical, fluorescence polarization, Epstein-Barr virus, 1536-well, counter-screen for EBNA-1 inhibitor project, dose response (AID 2377); set-up: species or system human gammaherpesvirus 4;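 also: fluorescence polarization of Cy5-labelled ZRE DNA probe bound by purified Zta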
T6 sequence (P03206 whole entry): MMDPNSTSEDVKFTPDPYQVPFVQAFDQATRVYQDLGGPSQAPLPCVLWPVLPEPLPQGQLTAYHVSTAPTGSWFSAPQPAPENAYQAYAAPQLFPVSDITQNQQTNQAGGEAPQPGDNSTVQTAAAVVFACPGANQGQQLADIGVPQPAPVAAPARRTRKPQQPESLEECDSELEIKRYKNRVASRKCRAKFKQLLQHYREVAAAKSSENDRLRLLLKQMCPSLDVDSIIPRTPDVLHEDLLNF

Voltage-dependent T-type calcium channel subunit alpha-1H, sequence (O95180 whole entry): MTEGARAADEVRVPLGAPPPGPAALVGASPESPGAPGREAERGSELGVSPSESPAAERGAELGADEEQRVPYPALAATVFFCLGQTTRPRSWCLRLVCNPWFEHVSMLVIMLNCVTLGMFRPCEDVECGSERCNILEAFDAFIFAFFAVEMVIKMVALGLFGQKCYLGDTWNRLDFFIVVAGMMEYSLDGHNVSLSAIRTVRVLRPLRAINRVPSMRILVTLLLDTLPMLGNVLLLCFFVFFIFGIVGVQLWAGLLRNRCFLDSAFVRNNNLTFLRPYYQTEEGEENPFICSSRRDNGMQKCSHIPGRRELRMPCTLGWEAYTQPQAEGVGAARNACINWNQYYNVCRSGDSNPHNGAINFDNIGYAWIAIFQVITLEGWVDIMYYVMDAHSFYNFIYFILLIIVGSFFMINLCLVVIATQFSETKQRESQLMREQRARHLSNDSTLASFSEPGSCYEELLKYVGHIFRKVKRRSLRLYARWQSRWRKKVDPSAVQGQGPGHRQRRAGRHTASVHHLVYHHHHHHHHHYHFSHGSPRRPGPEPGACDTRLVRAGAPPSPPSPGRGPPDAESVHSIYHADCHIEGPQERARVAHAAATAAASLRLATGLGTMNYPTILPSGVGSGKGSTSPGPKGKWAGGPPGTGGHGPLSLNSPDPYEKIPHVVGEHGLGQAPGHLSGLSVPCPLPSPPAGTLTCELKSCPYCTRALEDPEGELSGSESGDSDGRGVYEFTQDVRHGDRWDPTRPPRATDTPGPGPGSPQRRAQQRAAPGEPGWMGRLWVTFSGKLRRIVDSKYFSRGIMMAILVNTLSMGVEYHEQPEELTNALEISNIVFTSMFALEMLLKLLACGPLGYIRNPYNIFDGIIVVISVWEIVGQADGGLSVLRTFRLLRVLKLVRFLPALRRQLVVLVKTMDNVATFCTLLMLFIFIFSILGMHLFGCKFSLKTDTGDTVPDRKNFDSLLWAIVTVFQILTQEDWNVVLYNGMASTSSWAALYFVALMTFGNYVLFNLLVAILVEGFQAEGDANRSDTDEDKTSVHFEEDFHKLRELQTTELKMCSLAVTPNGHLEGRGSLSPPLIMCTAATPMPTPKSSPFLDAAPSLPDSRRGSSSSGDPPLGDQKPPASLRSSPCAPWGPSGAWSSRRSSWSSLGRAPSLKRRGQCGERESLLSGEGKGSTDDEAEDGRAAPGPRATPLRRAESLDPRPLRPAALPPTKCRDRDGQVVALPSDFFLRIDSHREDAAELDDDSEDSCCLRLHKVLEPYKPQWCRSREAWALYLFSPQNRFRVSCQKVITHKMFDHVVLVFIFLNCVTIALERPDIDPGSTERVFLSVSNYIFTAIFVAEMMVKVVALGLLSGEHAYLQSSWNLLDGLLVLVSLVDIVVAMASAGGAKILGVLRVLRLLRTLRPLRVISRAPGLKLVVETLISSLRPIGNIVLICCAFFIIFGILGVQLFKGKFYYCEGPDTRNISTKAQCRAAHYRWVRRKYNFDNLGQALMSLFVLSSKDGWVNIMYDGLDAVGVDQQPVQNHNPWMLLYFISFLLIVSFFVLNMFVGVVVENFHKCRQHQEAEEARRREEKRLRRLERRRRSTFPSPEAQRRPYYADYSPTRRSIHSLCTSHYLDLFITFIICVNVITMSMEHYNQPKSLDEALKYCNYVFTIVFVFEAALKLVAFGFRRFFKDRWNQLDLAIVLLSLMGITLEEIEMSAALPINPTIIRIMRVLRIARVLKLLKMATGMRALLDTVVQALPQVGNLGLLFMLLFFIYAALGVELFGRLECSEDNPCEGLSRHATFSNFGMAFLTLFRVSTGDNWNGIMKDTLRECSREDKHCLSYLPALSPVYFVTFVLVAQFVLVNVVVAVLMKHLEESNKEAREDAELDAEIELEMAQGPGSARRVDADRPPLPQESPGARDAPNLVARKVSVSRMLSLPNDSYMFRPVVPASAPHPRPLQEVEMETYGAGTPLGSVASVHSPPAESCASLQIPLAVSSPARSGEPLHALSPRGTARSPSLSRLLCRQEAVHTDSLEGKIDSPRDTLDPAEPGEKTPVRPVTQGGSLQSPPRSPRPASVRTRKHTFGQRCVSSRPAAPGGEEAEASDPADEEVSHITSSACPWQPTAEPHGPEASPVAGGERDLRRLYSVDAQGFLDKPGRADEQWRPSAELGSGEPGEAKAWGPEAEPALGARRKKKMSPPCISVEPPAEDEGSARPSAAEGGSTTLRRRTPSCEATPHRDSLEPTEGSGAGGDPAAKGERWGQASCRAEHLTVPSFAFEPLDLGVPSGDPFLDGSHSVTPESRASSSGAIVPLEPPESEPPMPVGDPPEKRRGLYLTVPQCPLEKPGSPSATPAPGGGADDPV

## CSc1cccc(NC(=O)CSc2ccccc2)c1
[1]
  EC50: 9.9 µM (active)

## O=C1NC(=O)C(CCc2ccncc2)(CCc2ccncc2)C(=O)N1Cc1ccccc1
[2]
  EC50: > 195 µM (not active)
[3]
  IC50: 50 µM (inactive)

## O=C(CSc1nnc(Cc2cccs2)n1-c1ccccc1)NCc1ccc2c(c1)OCO2
[1]
  EC50: 8.23 µM (active)

## COc1ccc(/C=C2\SC(=O)N(CCCC(=O)Nc3ccc(C(=O)O)cc3)C2=O)cc1OC
[4]
  IC50: > 80 µM (inactive)

## CN(C)CC/C=C1\c2cc(Cl)ccc2Sc2cc(F)c(F)cc21
[5]
  CC50: 38.8 µM (active)
Cells [6]
  IC50: 18.2 µM (active)
Vero [7]
  CC50: > 25 µM (active)

## C#CCSc1nnc(-c2ccc(C)cc2)o1
[5]
  CC50: > 40 µM (active)
Cells [6]
  IC50: 26.4 µM (active)

## Cc1ccc(-n2nc3ccc(N)cc3n2)cc1
[8]
  EC50: > 100 µM (not active)
HT-1080
  EC50: > 50 µM (not active)

## CC(=O)NC1=C(Nc2ccc(N(C)C)cc2)C(=O)c2ccccc2C1=O
[9]
  CC50: 15.3 µM (active)
[10]
  AC50: 34.5 µM (active)
Vero [11]
  IC50: 24.7 µM (active)
Protein RecA
  EC50: 46.6 µM (active)
Vero [7]
  CC50: > 25 µM (active)
Cells [12]
  IC50: 17.5 µM (active)

## C/C(N)=C(/C#N)C(=O)CN1C(=O)NC(Cc2c[nH]c3ccccc23)C1=O (configuration not stated)
Cells [12]
  IC50: 1.91 µM (active)

## CCCCOc1cc(C(=O)NCCN(CC)CC)c2ccccc2n1 [DIBUCAINE HYDROCHLORIDE]
[3]
  IC50: 50 µM (inactive)

## C=CCOc1ccc(/C=C2\SC(=S)N(CCC(=O)O)C2=O)cc1
[2]
  EC50: 5.69 µM (active)
[13]
  AC50: 0.337 µM (active)
[4]
  IC50: > 80 µM (inactive)

## O=C(Nc1ccccc1F)c1cc2c(s1)-c1ccccc1S(=O)(=O)C2
[14]
  IC50: 15.9 µM (not active)
[15]
  IC50: 93.7 µM (not active)

## CCN1C(=O)c2cccc3c(S(=O)(=O)Nc4ccccn4)ccc1c23
[4]
  IC50: > 80 µM (inactive)

## CCOc1ccccc1CNC(=O)c1cc2oc3ccccc3c2n1C
[9]
  CC50: 18.7 µM (active)
Vero [11]
  IC50: 4.91 µM (active)
Cells [12]
  IC50: 9.25 µM (active)

## O=C(Nc1ccc(F)cc1)c1cc(S(=O)(=O)Nc2ccc(F)cc2)cs1
[1]
  EC50: 2.88 µM (active)

## COc1ccc(-c2nnc(OCc3nc4ccccc4n3C)c3ccccc23)cc1
[9]
  CC50: 38.6 µM (active)
Cells [12]
  IC50: 14.7 µM (active)
